This is an account of results in PubChem BioAssay AID1745844 (Carcinogenic Potency Database (CPDB), 2022).

The TD50 is the 50% point of the dose-response relation for the toxic effect studied.

This data set relates to rodent lifetime carcinogenesis bioassay, tumor incidence TD50. Briefly: carcinogenic potency in animals, long-term in vivo studies, CPDB compilation (AID 1745844).

SMILES strings stand for the structures. Where “and” joins values, the source holds several entries; their conditions need not be identical. Equal values may be shown once. Calls of active or inactive are those of the source. The rule behind the calls is not given here.

Regarding `CCCc1c(OCCCCc2nn[nH]n2)ccc(C(C)=O)c1O`, the TD50 is, setting by setting: (mouse, strain B6C3F1, females, in feed, site: liver, lesion: hepatocellular adenoma, dosed 104 weeks, study length 104 weeks) 369 mg/kg/day; (mouse, strain B6C3F1, females, in feed, site: liver, lesion: hepatocellular carcinoma, dosed 104 weeks, study length 104 weeks) 112 mg/kg/day; (mouse, strain B6C3F1, males, in feed, site: liver, lesion: hepatocellular adenoma, dosed 104 weeks, study length 104 weeks) 2740 mg/kg/day; (mouse, strain B6C3F1, males, in feed, site: liver, lesion: hepatocellular carcinoma, dosed 104 weeks, study length 104 weeks) 426 mg/kg/day.
For `O=[N+]([O-])c1ccc(Cl)c([N+](=O)[O-])c1`, the TD50 (mouse, strain CD-1 HaM/ICR, females, in feed, site: any site (literature study), lesion: several types, types named in the paper, dosed 77 weeks, study length 94 weeks) is 124 mg/kg/day (inactive); the TD50 (mouse, strain CD-1 HaM/ICR, females, in feed, site: liver, lesion: several types, types named in the paper, dosed 77 weeks, study length 94 weeks) was 1520 mg/kg/day (inactive); the TD50 (mouse, strain CD-1 HaM/ICR, females, in feed, site: lung, lesion: several types, types named in the paper, dosed 77 weeks, study length 94 weeks) is 150 mg/kg/day (inactive); the TD50 (mouse, strain CD-1 HaM/ICR, males, in feed, site: any site (literature study), lesion: several types, types named in the paper, dosed 77 weeks, study length 94 weeks) is 255 mg/kg/day (inactive); the TD50 (mouse, strain CD-1 HaM/ICR, males, in feed, site: liver, lesion: several types, types named in the paper, dosed 77 weeks, study length 94 weeks) was 365 mg/kg/day (inactive); the TD50 (mouse, strain CD-1 HaM/ICR, males, in feed, site: lung, lesion: several types, types named in the paper, dosed 77 weeks, study length 94 weeks) is 541 mg/kg/day (inactive). Besides, for the setting “rat, strain Charles River CD (Sprague-Dawley), males, in feed, site: any site (literature study), lesion: several types, types named in the paper, dosed 77 weeks, study length 103 weeks”, the TD50 is 12.3 mg/kg/day (inactive). In addition, where the note is “rat, strain Charles River CD (Sprague-Dawley), males, in feed, site: liver, lesion: several types, types named in the paper, dosed 77 weeks, study length 103 weeks”, the carcinogen call is “negative (inactive)”.
As for `Cc1ccc(NC(N)=O)cc1`, the carcinogen call reads like this: (mouse, strain C57BL/6, females, in feed, site: liver, lesion: hepatocellular carcinoma, dosed 52 weeks, study length 69 weeks) “negative (inactive)”; (mouse, strain C57BL/6, females, in feed, site: lung, lesion: alveolar/bronchiolar adenoma, dosed 52 weeks, study length 69 weeks) “negative (inactive)”; (mouse, strain C57BL/6, males, in feed, site: lung, lesion: alveolar/bronchiolar adenoma, dosed 52 weeks, study length 69 weeks) “negative (inactive)”; (rat, strain Fischer 344, females, in feed, site: liver, lesion: one or several types, types not named, dosed 52 weeks, study length 69 weeks) “negative (inactive)”. For the same molecule, the TD50 runs as follows: (mouse, strain C57BL/6, males, in feed, site: all sites, lesion: malignant lymphoma, histiocytic type, dosed 52 weeks, study length 69 weeks) 265 mg/kg/day; (mouse, strain C57BL/6, males, in feed, site: all sites, lesion: malignant lymphoma, dosed 52 weeks, study length 69 weeks) 206 mg/kg/day; (mouse, strain C57BL/6, males, in feed, site: liver, lesion: hepatocellular carcinoma, dosed 52 weeks, study length 69 weeks) 722 mg/kg/day (inactive); (mouse, strain C57BL/6, males, in feed, site: mesenteric lymph node, lesion: malignant lymphoma, histiocytic type, dosed 52 weeks, study length 69 weeks) 626 mg/kg/day; (mouse, strain C57BL/6, males, in feed, site: multiple organs, lesion: malignant lymphoma, histiocytic type, dosed 52 weeks, study length 69 weeks) 441 mg/kg/day; (rat, strain Fischer 344, males, in feed, site: liver, lesion: hepatocellular carcinoma, dosed 52 weeks, study length 69 weeks) 699 mg/kg/day (inactive).
For `CCCCCCCCCCCCCCCC(=O)CC(=O)CCCCCCCCCCCCCCC`, the carcinogen call is, setting by setting: (rat, strain F344/DuCrj, females, in feed, site: colon, lesion: one or several types, types not named, dosed 54 weeks, study length 54 weeks) “negative (inactive)”; (rat, strain F344/DuCrj, females, in feed, site: mammary gland, lesion: one or several types, types not named, dosed 54 weeks, study length 54 weeks) “negative (inactive)”.
With `CC(C)CCC[C@@H](C)[C@H]1CC[C@H]2[C@@H]3CC=C4C[C@@H](OC(=O)Cc5ccc(N(CCCl)CCCl)cc5)CC[C@]4(C)[C@H]3CC[C@]12C`, the TD50 was 0.211 mg/kg/day (mouse, strain B6C3F1, females, by gavage, site: all sites + lung + myocardium, lesion: leukemia + lymphoma + alveolar/bronchiolar adenoma + alveolar/bronchiolar carcinoma + sarcoma, NOS, dosed 70 weeks, study length 83 weeks); 1.52 mg/kg/day (mouse, strain B6C3F1, females, by gavage, site: all sites, lesion: hemangiosarcoma, dosed 70 weeks, study length 83 weeks); 2.07 mg/kg/day (mouse, strain B6C3F1, females, by gavage, site: all sites, lesion: leukemia + lymphoma, dosed 70 weeks, study length 82 weeks); 0.652 mg/kg/day (mouse, strain B6C3F1, females, by gavage, site: all sites, lesion: leukemia + lymphoma, dosed 70 weeks, study length 83 weeks); 0.183 mg/kg/day (mouse, strain B6C3F1, females, by gavage, site: any site (literature study), lesion: several types, types named in the paper, dosed 70 weeks, study length 83 weeks); 0.416 mg/kg/day (mouse, strain B6C3F1, females, by gavage, site: lung, lesion: alveolar/bronchiolar adenoma + alveolar/bronchiolar carcinoma, dosed 70 weeks, study length 83 weeks). Moreover, the TD50 was 0.951 mg/kg/day (mouse, strain B6C3F1, females, by gavage, site: myocardium, lesion: sarcoma, NOS, dosed 70 weeks, study length 83 weeks); 0.912 mg/kg/day (mouse, strain B6C3F1, females, by gavage, site: ovary, lesion: tubular adenoma, dosed 70 weeks, study length 83 weeks); 0.757 mg/kg/day (mouse, strain B6C3F1, males, by gavage, site: all sites + lung + myocardium, lesion: leukemia + lymphoma + alveolar/bronchiolar adenoma + alveolar/bronchiolar carcinoma + sarcoma, NOS, dosed 64 weeks, study length 81 weeks); 6.15 mg/kg/day (mouse, strain B6C3F1, males, by gavage, site: all sites, lesion: hemangiosarcoma, dosed 64 weeks, study length 81 weeks); 2.13 mg/kg/day and 1.89 mg/kg/day (mouse, strain B6C3F1, males, by gavage, site: all sites, lesion: leukemia + lymphoma, dosed 64 weeks, study length 81 weeks); 0.728 mg/kg/day (mouse, strain B6C3F1, males, by gavage, site: any site (literature study), lesion: several types, types named in the paper, dosed 64 weeks, study length 81 weeks). Also, the TD50 reads like this: (mouse, strain B6C3F1, males, by gavage, site: liver, lesion: hepatocellular adenoma + hepatocellular carcinoma + neoplastic nodule, dosed 64 weeks, study length 81 weeks) 32.9 mg/kg/day; (mouse, strain B6C3F1, males, by gavage, site: lung, lesion: alveolar/bronchiolar adenoma + alveolar/bronchiolar carcinoma, dosed 64 weeks, study length 81 weeks) 1.19 mg/kg/day; (mouse, strain B6C3F1, males, by gavage, site: lung, lesion: alveolar/bronchiolar carcinoma, dosed 64 weeks, study length 81 weeks) 2.05 mg/kg/day; (mouse, strain B6C3F1, males, by gavage, site: myocardium, lesion: sarcoma, NOS, dosed 64 weeks, study length 81 weeks) 3.87 mg/kg/day and 6.28 mg/kg/day; (rat, strain Sprague-Dawley, females, by gavage, site: any site (literature study), lesion: several types, types named in the paper, dosed 52 weeks, study length 85 weeks) 0.271 mg/kg/day; (rat, strain Sprague-Dawley, females, by gavage, site: mammary gland, lesion: adenocarcinoma, NOS, dosed 52 weeks, study length 85 weeks) 0.523 mg/kg/day. Also, the TD50 is, setting by setting: (rat, strain Sprague-Dawley, males, by gavage, site: all sites, lesion: leukemia + lymphoma, dosed 52 weeks, study length 84 weeks) 2.73 mg/kg/day (inactive); (rat, strain Sprague-Dawley, males, by gavage, site: any site (literature study), lesion: several types, types named in the paper, dosed 52 weeks, study length 84 weeks) 0.481 mg/kg/day (inactive).
Take `CCC(C)[N+](=O)[O-]` (stereo not given): the TD50 (rat, strain Fischer 344, males, by gavage, site: liver, lesion: hepatocellular carcinoma, dosed 50 weeks, study length 83 weeks) was 2.86 mg/kg/day.
